Test results published in patent publication US20090209525A1, “ENABLING METHODS TO IDENTIFY ALLOSTERIC MODULATORS OF RECEPTOR ACTIVITY” (priority 2006, published 2009).
Changes are numbered by the printed parent chain. Where two headings read alike, the source gives them in different places.

Experiments:
rat M1 Y106A receptor [1] = target: T1, rat M1 Y106A receptor (Rattus norvegicus, UniProt P08482, Y106A); test: ^3H-NMS radioligand binding, Y106A; conditions: for Shift: Ki Y106A divided by Ki wild-type
T1 construct: expressed in transfected cells
T1 sequence (P08482 1-460 Y106A): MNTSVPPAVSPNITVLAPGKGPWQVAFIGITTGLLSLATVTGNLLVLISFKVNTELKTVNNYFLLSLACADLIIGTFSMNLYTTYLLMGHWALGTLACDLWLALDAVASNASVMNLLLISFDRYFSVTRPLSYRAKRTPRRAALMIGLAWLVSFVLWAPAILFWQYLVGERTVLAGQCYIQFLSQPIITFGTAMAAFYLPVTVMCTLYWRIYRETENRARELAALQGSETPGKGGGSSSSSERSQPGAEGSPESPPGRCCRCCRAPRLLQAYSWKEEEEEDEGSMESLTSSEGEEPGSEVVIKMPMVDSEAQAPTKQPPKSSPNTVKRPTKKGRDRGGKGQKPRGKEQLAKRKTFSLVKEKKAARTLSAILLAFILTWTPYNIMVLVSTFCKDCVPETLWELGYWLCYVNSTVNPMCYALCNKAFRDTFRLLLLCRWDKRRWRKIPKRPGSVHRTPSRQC
Method: Briefly, cell homogenates are prepared from cells transiently or stably expressing wild type or mutant receptors. For transiently transfected cells, HEK cells are transfected with receptor of interest and cells harvested 48 hours post transfection. Cells expressing the receptor, stably or transiently, are harvested using phosphate buffered saline containing 5 mM EDTA, cells centrifuged at low speed and pellet re-suspended in binding buffer. Cell suspension is polytroned and centrifuged at 15,000×g. The pellet is resuspended in binding buffer and centrifugation repeated two more times. The washed cell homogenates are used for the competition binding assays. Competition binding assays are carried out in the presence of fixed amount of cell homogenate, fixed concentration of radioactively labeled orthosteric or allosteric ligand and varying concentrations of the cal under study using appropriate buffer. Incubations are carried out at room temperature for 2 hours. Incubations are terminated by filtration onto GF/B filters using Packard cell harvester followed by 3 washes with ice-cold buffer. Radioactivity retained on the filters is quantitated using Packard Top Count using Microscint 20 scintillation fluid. […] The membranes prepared above are incubated with a labeled ligand in 25 mM sodium phosphate, 5 mM magnesium chloride, 0.01% BSA two hours at room temperature. The binding reaction is stopped by rapid filtration onto GF/B filters. […] The pKd values (pKd=−log Kd) of the labeled ligand are calculated.
Radioligand binding assays were carried out in 25 mM sodium phosphate, 5 mM magnesium chloride, 0.01% BSA. Incubations were for two hours at room temperature, and reactions were stopped by rapid filtration onto GF/B filters.

[2] = target: T2, rat M1 wild-type receptors (Rattus norvegicus, UniProt P08482); test: R-SAT functional assay, wild-type receptor; type: cell-based; conditions: for EC50: read-out: pEC50 (converted); for Shift: EC50 divided by EC50 for wild-type (reference)
T2 construct: expressed in transfected cells
T2 sequence (P08482 1-460): T1 sequence (P08482 1-460 Y106A) with A106Y
Method: (§1) Cells are co-transfected for 18 h with DMEM containing 0.08 micrograms/ml of an expression vector for the expression of the mutant receptor and 0.3 micrograms/ml pSI-Bgal (Promega, Madison Wis.), and 0.5% v/v Polyfect (Qiagen, Valencia Calif.), as recommended by the manufacturer. On day three, the medium is replaced with DMEM containing 1% PSG, 0.5% calf serum, 2% cyto-sf3 (Kemp Biotechnologies, Frederick, Md.), and varying concentrations of the compounds to be tested. Cells are grown in a humidified atmosphere with 5% ambient CO2 for 5 days. The media is removed from the plates, and beta-galactosidase activity is measured by the addition of o-nitrophenyl -d-galactopyranoside in phosphate-buffered saline with 5% Nonidet P-40. […] The following equation is fitted to the data using GraphPad Prism software (San Diego, Calif.):
(§2) NIH-3T3 cells were grown in 96-well tissue culture plates to 70 to 80% confluence in Dulbecco's modified essential media (DMEM) supplemented with 100 units/ml penicillin, 100 micrograms/ml streptomycin, 0.3 mg/ml L-glutamine (1% PSG, GIBCO) and 10% calf serum (Sigma-Aldrich). Cells were transfected for 18 h with DMEM containing 0.08 micrograms/ml receptor DNA and 0.3 micrograms/ml pSI-Bgal (Promega, Madison Wis.), 0.5% v/v Polyfect (Qiagen, Valencia Calif.). Medium was replaced with DMEM containing 1% PSG, 0.5% calf serum, 2% cyto-sf3 (Kemp Biotechnologies, Frederick, Md.), and varying concentrations of ligand. […] Cells were grown in a humidified atmosphere with 5% ambient CO2 for 5 days. Medium was removed from the plates, and beta-galactosidase activity was measured by the addition of o-nitrophenyl -d-galactopyranoside in phosphate-buffered saline with 5% Nonidet P-40.
Receptor Selection and Amplification (R-SAT™) Assays: R-SAT™ functional assays were carried out as follows. NIH-3T3 cells were grown in 96-well tissue culture plates to 70 to 80% confluence in Dulbecco's modified essential media (DMEM) supplemented with 100 units/ml penicillin, 100 micrograms/ml streptomycin, 0.3 mg/ml L-glutamine (1% PSG, GIBCO) and 10% calf serum (Sigma-Aldrich). Cells were transfected for 18 h with DMEM containing 0.08 micrograms/ml receptor DNA and 0.3 micrograms/ml pSI-Bgal (Promega, Madison Wis.), 0.5% v/v Polyfect (Qiagen, Valencia Calif.). The transfected cells were frozen away. Cells were thawed and added to 96 well plates with DMEM containing 1% PSG, 0.5% calf serum, 2% cyto-sf3 (Kemp Biotechnologies, Frederick, Md.), and varying concentrations of ligand.
In an effort to further characterize monoamine modulators, we used a panel of mutant muscarininc M1 receptors to analyze the activity and potency of orthosteric modulators and various allosteric modulators at those receptors.

rat M1 Y106A receptor [3] = target: T1, rat M1 Y106A receptor; test: R-SAT functional assay, Y106A mutant; type: cell-based; conditions: for Shift / EC50 / Eff (%): Table 3; for Shift: EC50 Y106A divided by EC50 wild-type; for Eff (%): maximum response, normalized
Method: as §1, §2

[4] = Table 2, maximum response relative to maximum response of carbachol
[5] = Table 3, M1 WT, maximum response, normalized
[6] = Table 4, M1 wild type, maximum response relative to xanomeline
[7] = Table 10, M1 Wild-Type, NA = non-active
[8] = Table 10, M1 Wild-Type, maximum response relative to carbachol

Row | IC50 (rat M1 Y106A receptor [1]) [nM] | Shift (rat M1 Y106A receptor [1]) | Eff (%) [2, 4] [%] | EC50 ([2]; Table 2, mean +/- S.E.M., n=5) [nM] | Shift ([2]; Table 3) | Eff (%) [2, 5] [%] | EC50 ([2]; Table 3, M1 WT) [nM] | % Eff [2, 6] [%] | EC50 [2, 7] [nM] | % Eff [2, 8] [%] | Shift (rat M1 Y106A receptor [3]) | EC50 (rat M1 Y106A receptor [3]; Y106A) [nM] | Eff (%) (rat M1 Y106A receptor [3]; Y106A) | EC50 ([2]; Table 4, M1 wild type) [nM] | Emax (rat M1 Y106A receptor [3]; R-SAT, Y106A, read-out: increase of maximum response over response at wild-type) [%] | SMILES
1 | 3160 | 3 | 89 ± 11 | 15.8 | 1 | 89 ± 6 | 15.8 | 59 | 25.1 | 109 | 6 | 79.4 | 69 ± 3% | 25.1 |  | CCCCC1CCN(CCCN2C(=O)COc3cc(F)ccc32)CC1 [AC-260584, 4-[3-(4-Butyl-piperidin-1-yl)-propyl]-7-fluoro-4H-benzo [1,4]oxazin-3-one]
2 | 50.1 | 0.3 | 79 ± 14 | 50.1 | 1 | 78 ± 4 | 50.1 | 43 | 100 | 93 | 2 | 100 | 112 ± 15% | 31.6 | 40 | Clc1ccc2c(c1)N=C(N1CCNCC1)c1ccccc1N2 [NDMC, 8-chloro-11-(1-piperazinyl)-5H-dibenzo [b,e] [1,4] diazepine]

Row | SMILES | IC50 (rat M1 Y106A receptor [1]) [nM] | Shift (rat M1 Y106A receptor [1]) | Eff (%) [2, 4] [%] | EC50 ([2]; Table 2, mean +/- S.E.M., n=5) [nM] | Shift ([2]; Table 3) | Eff (%) [2, 5] [%] | EC50 ([2]; Table 3, M1 WT) [nM] | % Eff [2, 6] [%] | EC50 [2, 7] [nM] | % Eff [2, 8] [%] | Shift (rat M1 Y106A receptor [3]) | EC50 (rat M1 Y106A receptor [3]; Y106A) [nM] | Eff (%) (rat M1 Y106A receptor [3]; Y106A) | EC50 ([2]; Table 4, M1 wild type) [nM] | Emax (rat M1 Y106A receptor [3]; R-SAT, Y106A, read-out: increase of maximum response over response at wild-type) [%]
3 | CCCCC1CCN(CCCC(=O)c2ccccc2C)CC1 [AC-42, 4-n-butyl-1-[4-(2-methylphenyl)-4-oxo-1-butyl] piperidine hydrogen chloride] | 5010 | 1 | 48 ± 11 | 158 | 1 | 47 ± 5 | 158 | 24 | 200 | 56 | >8 | > 1000 | >30 ± — % |  | 
